Where two headings read alike, the source gives them in different places.
Legend:
[1] = test system: NF-kB activity upon IL-1β stimulation (IL-1R) in THP1 NF-kB reporter cells; experiment: THP1 NF-kB reporter assay, IL-1β stimulation; format: cell-based, human; details: for LOG (IL1B): log of IL1B IC50
[2] = test system: NF-kB activity upon TLR2 stimulation with PAM3CSK4 in THP1-Blue NF-kB SEAP reporter cells; experiment: THP1-Blue NF-kB SEAP reporter assay, TLR2 stimulation with PAM3CSK4; format: cell-based, human; details: for LOG (PAM): log of PAM IC50
[3] = test system: MDS/AML cell lines and patient-derived samples; experiment: Clonogenic assay (colony formation in methylcellulose); format: cell-based, human; details: IRAK4KO versus IRAK1KO, MyD88KO or WT THP1 cells; 500 nM
[4] = target: T1, IRAK4 (Homo sapiens, UniProt Q9NWZ3); experiment: Reaction Biology Kinase Assay service, kinase inhibition (IC50); format: biochemical; details: Table 1; for LOG (IRAK4): log of IRAK4 IC50; for IC50: unit nM, read-out: Reaction Bio IRAK4 IC50
T1 construct: purchased Reaction Biology (contract assay service)
T1 sequence (Q9NWZ3 1-460): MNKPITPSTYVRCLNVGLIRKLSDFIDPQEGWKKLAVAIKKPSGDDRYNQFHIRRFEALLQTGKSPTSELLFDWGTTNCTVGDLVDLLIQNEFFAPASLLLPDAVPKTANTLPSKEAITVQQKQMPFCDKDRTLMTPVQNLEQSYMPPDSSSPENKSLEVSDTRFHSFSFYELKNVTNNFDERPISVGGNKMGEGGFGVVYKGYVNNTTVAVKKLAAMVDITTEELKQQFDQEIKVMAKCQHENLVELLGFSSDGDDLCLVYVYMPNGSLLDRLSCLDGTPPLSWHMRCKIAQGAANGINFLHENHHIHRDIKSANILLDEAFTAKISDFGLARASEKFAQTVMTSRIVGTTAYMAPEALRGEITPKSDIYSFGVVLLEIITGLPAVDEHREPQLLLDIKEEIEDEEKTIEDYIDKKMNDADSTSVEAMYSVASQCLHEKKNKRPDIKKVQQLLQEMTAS

[5] = target: T2, IRAK1 (Homo sapiens, UniProt P51617); experiment: as above; format: biochemical; details: Table 1; for LOG (IRAK1): log of IRAK1 IC50; for IC50: unit nM, read-out: Reaction Bio IRAK1 IC50
T2 construct: purchased Reaction Biology (contract assay service)

[6] = THP1 NF-kB reporter cells, result in words
[7] = Homo sapiens, THP-1, Table 1, unit nM, read-out: THP-1 NFkB IL1B IC50
[8] = Homo sapiens, THP-1, Table 1, unit nM, read-out: THP-1 NFkB PAM IC50

T2 sequence (P51617 whole entry): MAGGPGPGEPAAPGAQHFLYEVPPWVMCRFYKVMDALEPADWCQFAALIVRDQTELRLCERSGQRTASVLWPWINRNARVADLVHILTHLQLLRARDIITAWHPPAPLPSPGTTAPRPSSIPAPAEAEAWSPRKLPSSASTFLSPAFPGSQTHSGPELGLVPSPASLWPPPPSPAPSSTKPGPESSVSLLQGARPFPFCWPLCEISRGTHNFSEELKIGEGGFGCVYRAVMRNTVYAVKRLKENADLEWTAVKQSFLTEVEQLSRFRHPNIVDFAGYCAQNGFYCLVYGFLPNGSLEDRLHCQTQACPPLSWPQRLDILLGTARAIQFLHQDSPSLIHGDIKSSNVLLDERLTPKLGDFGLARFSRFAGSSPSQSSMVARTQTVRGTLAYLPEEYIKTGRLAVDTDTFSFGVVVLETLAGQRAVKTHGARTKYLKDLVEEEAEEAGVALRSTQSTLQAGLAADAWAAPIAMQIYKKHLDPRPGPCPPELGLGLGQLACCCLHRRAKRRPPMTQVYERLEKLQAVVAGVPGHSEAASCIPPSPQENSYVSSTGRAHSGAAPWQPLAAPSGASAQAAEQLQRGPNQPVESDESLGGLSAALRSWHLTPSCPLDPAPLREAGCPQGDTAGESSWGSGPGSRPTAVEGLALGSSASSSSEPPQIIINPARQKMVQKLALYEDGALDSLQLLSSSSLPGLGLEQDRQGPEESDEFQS

Row | IC50 ([1]; THP1 NF-kB reporter cells, read-out: IC50 vs. IL-1β (NF-kB activation)) [nM] | IC50 ([1]; Table 1, unit nM, read-out: THP-1 NFkB IL1B IC50) [nM] | IC50 ([2]; THP1 NF-kB reporter cells, read-out: IC50 vs. Pam3CSK4 (TLR2-mediated NF-kB activation)) [nM] | IC50 [1, 7] [nM] | IC50 [2, 8] [nM] | LOG (IRAK4) [4] | IC50 [4] [nM] | LOG (IRAK1) [5] | IC50 [5] [nM] | SMILES | Span (extent of suppression of signaling through the IL-1R) ([1]; THP1 NF-kB reporter cells, IL-1β) [%] | Suppression of NF-kB signaling through the IL-1 receptor [1, 6] | LOG (IL1B) ([1]; Table 1) | Suppression of NF-kB signaling through TLR2 [2, 6] | LOG (PAM) ([2]; Table 1) | Colony formation of knockout THP1 cells with STAT inhibitor [3]
1 | 81 | 81.2 | 150 | – | – | – | – | – | – | CC(C)(O)c1cc2nn(CCS(C)(=O)=O)cc2cc1NC(=O)c1cccc(C(F)(F)F)n1 [BAY1834845] | 59 | do not fully suppress | 1.91 | fully suppress | 2.18 | –
2 | – | – | – | – | – | – | – | – | – | CC(=O)c1cc2c(o1)C(=O)c1ccccc1C2=O [BB1608] | – | – | – | – | – | sensitive
3 | – | – | – | 580 | 307 | – | – | – | – | Cc1cc(-c2nc(C(=O)Nc3cc4oc(N5CCOCC5)nc4nc3N3CC[C@@H](O)C3)co2)ccn1 [CA-4948 (Emavusertib), Emavusertib] | – | – | 2.76 | – | 2.49 | –
4 | – | – | – | 209 | 242 | 0.13 | 1.35 | 1.72 | 52.8 | COc1cc2ncc(-c3cncc(N[C@H]4CNCC[C@@H]4F)n3)n2nc1C1CC1 [Compound 1] | – | – | 2.32 | – | 2.38 | –
5 | – | – | – | 63.5 | 79.2 | 0.11 | 1.3 | 1.33 | 21.3 | COc1cc2ncc(-c3ccnc(N[C@H]4CNCC[C@@H]4F)n3)n2nc1C1CC1 [Compound 2] | – | – | 1.80 | – | 1.90 | –
6 | – | – | – | 316 | 317 | 0.64 | 4.4 | 1.80 | 62.6 | COc1cc2ncc(-c3ccnc(N[C@H]4CCCNC4)n3)n2nc1C1CC1 [Compound 3] | – | – | 2.50 | – | 2.50 | –
7 | – | – | – | 73.3 | 17.3 | 0.34 | 2.2 | 0.84 | 6.96 | C[C@@](O)(c1cn2c(-c3ccnc(N[C@H]4CNCC[C@@H]4F)n3)cnc2cn1)C(F)(F)F [Compound 4] | – | – | 1.87 | – | 1.24 | –
8 | – | – | – | 25 | 10.5 | −0.22 | 0.609 | 0.58 | 3.84 | COc1cc2ncc(-c3ccnc(N[C@H]4CNCC[C@@H]4F)n3)n2cc1C(C)(C)O [Compound 5] | – | – | 1.40 | – | 1.02 | –

From patent US20260034112A1, “MULTI-CYCLIC IRAK1 AND IRAK4 INHIBITING COMPOUNDS AND USES THEREOF” (CHILDREN'S HOSPITAL MEDICAL CENTER, priority 2022, published 2026)
